Data set [1] deals with HUVEC. Nature of the data set: Antiproliferative activity against human HUVEC cells at 100 uM measured after 48 hrs by CCK-8 method. In kind it is toxicity, cell-based. On the technique in general: Tetrazolium dyes change colour on reduction, which living cells bring about.
Data set [2] concerns MM1.S. Nature of the data set: Effect on CK1a protein level in human MM1.S cells at 0.1 uM measured after 16 hrs by Western blot analysis. The data set is classed as functional, cell-based. (In general: A western blot detects proteins with antibodies after separation by electrophoresis.)
In data set [3] the test system is HuH-6. As to the kind of experiment: Effect on SALL4 protein level in human HuH-6 cells at 0.1 uM measured after 16 hrs by Western blot analysis. The data set is classed as functional, cell-based.
Data set [4] relates to HUVEC. Nature of the data set: Antiangiogenesis activity in HUVEC cells assessed as inhibition of tube formation at 10 to 100 uM measured after 18 hrs. In kind it is functional, cell-based. The settings on record: Homo sapiens, dose 10-100 µM.
In data set [5] the test system is MM1.S. As to the kind of experiment: Effect on GSPT1 protein level in human MM1.S cells at 0.1 uM measured after 16 hrs by Western blot analysis. The data set is classed as functional, cell-based.
In data set [6] the test system is MM1.S. Nature of the data set: Antiproliferative activity against human MM1.S cells at 100 uM measured after 72 hrs by CCK-8 method. In kind it is functional, cell-based.
Data set [7] relates to MM1.S. As to the kind of experiment: Effect on IKZF3 protein level in human MM1.S cells at 0.1 uM measured after 16 hrs by Western blot analysis. In kind it is functional, cell-based.
The target in data set [8] is Protein cereblon (Homo sapiens, UniProt Q96SW2). Nature of the data set: Binding affinity to human CRBN TBD (319 to 425 residues) assessed as inhibition constant by MST assay.
Data set [9] concerns HUVEC. As to the kind of experiment: Antiproliferative activity against human HUVEC cells at 10 uM measured after 48 hrs by CCK-8 method. The data set is classed as toxicity, cell-based.
Data set [10] relates to MM1.S. As to the kind of experiment: Antiproliferative activity against human MM1.S cells at 10 uM measured after 72 hrs by CCK-8 method. The data set is classed as functional, cell-based.
Data set [11] in a line: Metabolic stability in human liver microsomes assessed as half life measured upto 60 mins in presence of NADPH by LC/MS analysis. The data set is classed as ADME, Microsome.
For data set [12], the system named is HUVEC. As to the kind of experiment: Antiproliferative activity against human HUVEC cells at 10 uM measured after 48 hrs by CCK-8 method relative to control. In kind it is toxicity, cell-based.
The test system of data set [13] is HUVEC. As to the kind of experiment: Antiangiogenesis activity in HUVEC cells assessed as inhibition of tube formation measured after 18 hrs. The data set is classed as functional, cell-based. The settings on record: Homo sapiens.
Data set [14] concerns HUVEC. Nature of the data set: Inhibition of tube formation in HUVEC cells at 100 uM measured after 18 hrs relative to control. The settings on record: Homo sapiens. The data set is classed as functional.

The term half-life denotes the time in which the quantity being followed falls by half. In general, IC50 refers to the concentration at which inhibition is half-maximal. By inhibition is commonly meant the percentage by which the read-out fell short of the control.

Each structure is given as a SMILES string. Active and inactive are the calls of the source. No cut-off for these calls is given here.

As to `O=C1CCC(N2C(=O)c3ccccc3C2=O)C(=O)N1` (centres undefined) [THALIDOMIDE], the Activity result in [1] was “Non-Toxic”. In addition, the result in data set [2], in data set [3], in data set [4], in data set [5], in data set [6] and in data set [7] was inactive.

As for `CC(C)N1C(=O)NC(=O)C(C)(N2C(=O)c3ccccc3C2=O)C1=O` (centres undefined), the result in data set [2], in data set [3], in [4], in data set [5], in [10] and in data set [7] was inactive. In addition, the Ki entry in [8] is “Not Active”. The Activity entry in data set [9] is given as “Non-Toxic”. Also, the half-life in [11] came to 19.3 min.

With `O=C1CCC(NC(=O)c2cc(F)c(F)c(F)c2F)C(=O)N1` (centres undefined), the result in data set [2], in data set [3], in data set [4], in data set [5], in data set [10] and in data set [7] was inactive. In data set [9], the Activity entry was “Non-Toxic”.

For `CC(C)N1C(=O)NC(=O)C(C)(N2C(=O)c3c(F)c(F)c(F)c(F)c3C2=O)C1=O` (centres undefined), the outcome in data set [2], in data set [3], in [5] and in data set [7] was inactive. Besides, in data set [8], the Ki result is “Not Active”. The same compound displayed an Activity in data set [12] of over 95%. For the same compound, the IC50 in [13] was found to be 2800 nM.

In the case of `CC(C)N1C(=O)NC(=O)C(C)(NC(=O)c2cc(F)c(F)c(F)c2F)C1=O` (centres undefined), the result in [2], in data set [3], in [4], in [5], in [10] and in [7] was inactive. Besides, the Ki entry in data set [8] is given as “Not Active”. Further, the Activity result in data set [9] is listed as “Non-Toxic”.

Turning to `O=C1CCC(NC(=O)c2cc(F)c(F)cc2F)C(=O)N1` (centres undefined), the inhibition result in data set [14] is “inactive”.

As to `O=C1CCC(N2C(=O)c3c(F)c(F)c(F)c(F)c3C2=O)C(=O)N1` (centres undefined), the outcome in data set [2], in [3], in data set [5] and in data set [7] was inactive.

Turning to `CCOCCNc1cccc2c1C(=O)N(C1CCC(=O)NC1=O)C2=O` (centres undefined), in data set [14], the inhibition at 100 µM is 50%.

Regarding `O=C1CCC(NC(=O)c2ccccc2)C(=O)N1` (centres undefined), the result in data set [2], in data set [3], in data set [4], in [5], in data set [10] and in [7] was inactive. Also, the Activity entry in data set [9] is “Non-Toxic”.

With `CC(C)N1C(=O)NC(=O)C(C)(NC(=O)c2ccccc2)C1=O` (centres undefined), the result in data set [2], in data set [3], in data set [4], in data set [5], in data set [10] and in data set [7] was inactive. Further, the Ki entry in data set [8] was “Not Active”. Further, in data set [9], the Activity entry is “Non-Toxic”.

The values above are taken from ChEMBL document CHEMBL5576087 (Bioorg Med Chem Lett, 2024).
